The record followed here is ChEMBL document CHEMBL3784948, “Pharmacokinetics of diclofenac and five metabolites after single doses in healthy volunteers and after repeated doses in patients” (Xenobiotica, 1988).

Type in all cases: ADME, organism-based
Series [1] has as its system Homo sapiens. The experiment in a line: Tmax in healthy volunteer (3 volunteers) assessed as 4',5-dihydroxy diclofenac at 100 mg, po administered as single dose by capillary column gas chromatographic method. The conditions noted are these: in vivo.
Series [2] can be described thus: Total drug excretion in healthy volunteer (3 volunteers) urine assessed as 4',5-dihydroxy diclofenac at 100 mg, po administered as single dose measured over 96 hrs by capillary column gas chromatographic method. The conditions noted are these: human, in vivo.
Series [3] concerns Homo sapiens. The experiment in a line: Apparent elimination half life in healthy volunteer (3 volunteers) assessed as 4',5-dihydroxy diclofenac at 100 mg, po administered as single dose by capillary column gas chromatographic method. The settings on record: in vivo.
The test system of series [4] is Homo sapiens. Briefly: AUC (0 to 96 hrs) in healthy volunteer (3 volunteers) assessed as 3'-hydroxy-4'-methoxy diclofenac at 100 mg, po administered as single dose by capillary column gas chromatographic method. Also on record: dose 100 mg, time < 96 hr, route oral. The settings on record: in vivo.
In series [5] the test system is Homo sapiens. Briefly: AUC (0 to infinity) in healthy volunteer (2 volunteers) assessed as 3'-hydroxy-4'-methoxy diclofenac at 100 mg, po administered as single dose by capillary column gas chromatographic method. Also on record: dose 100 mg, route oral, time infinity. The settings on record: in vivo.
Series [6] has as its system Homo sapiens. The experiment in a line: Cmax in healthy volunteer (3 volunteers) assessed as 3'-hydroxy-4'-methoxy diclofenac at 100 mg, po administered as single dose by capillary column gas chromatographic method. On the set-up: dose 100 mg, route oral. The settings on record: in vivo.
The test system of series [7] is Homo sapiens. Briefly: Tmax in healthy volunteer (3 volunteers) assessed as 3'-hydroxy-4'-methoxy diclofenac at 100 mg, po administered as single dose by capillary column gas chromatographic method. The conditions noted are these: in vivo.
Series [8] is described as follows: Total drug excretion in healthy volunteer (3 volunteers) urine assessed as 3'-hydroxy-4'-methoxy diclofenac at 100 mg, po administered as single dose measured over 96 hrs by capillary column gas chromatographic method. The settings on record: human, in vivo.
The test system of series [9] is Homo sapiens. Briefly: Apparent elimination half life in healthy volunteer (3 volunteers) assessed as 3'-hydroxy-4'-methoxy diclofenac at 100 mg, po administered as single dose by capillary column gas chromatographic method. The settings on record: in vivo.
For series [10], the system named is Homo sapiens. The experiment in a line: AUC (0 to 72 hrs) in healthy volunteer assessed as 3'-hydroxy-4'-methoxy diclofenac at 100 mg, po administered as single dose by capillary column gas chromatographic method. Also on record: time < 72 hr, dose 100 mg, route oral. The settings on record: in vivo.
The subject of series [11] is Homo sapiens. The experiment in a line: AUC (0 to 96 hrs) in healthy volunteer (3 volunteers) at 100 mg, po administered as single dose by capillary column gas chromatographic method. The settings on record: in vivo. Also on record: time < 96 hr, dose 100 mg, route oral.
In series [12] the test system is Homo sapiens. Briefly: AUC (0 to infinity) in healthy volunteer (3 volunteers) at 100 mg, po administered as single dose by capillary column gas chromatographic method. On the set-up: dose 100 mg, time infinity, route oral. The settings on record: in vivo.
The test system of series [13] is Homo sapiens. The experiment in a line: Cmax in healthy volunteer (3 volunteers) at 100 mg, po administered as single dose by capillary column gas chromatographic method. Also on record: dose 100 mg, route oral. The settings on record: in vivo.
A short description of series [14]: Tmax in healthy volunteer (3 volunteers) at 100 mg, po administered as single dose by capillary column gas chromatographic method. The conditions noted are these: human, in vivo.
A short description of series [15]: Total drug excretion in healthy volunteer (3 volunteers) urine at 100 mg, po administered as single dose measured over 96 hrs by capillary column gas chromatographic method. The conditions noted are these: human, in vivo.
Series [16] is described as follows: Apparent elimination half life in healthy volunteer (3 volunteers) at 100 mg, po administered as single dose by capillary column gas chromatographic method. The conditions noted are these: human, in vivo, read-out: betat1/2(app) (converted).
For series [17], the system named is Homo sapiens. The experiment in a line: AUC (0 to 96 hrs) in healthy volunteer (3 volunteers) assessed as 4'-hydroxy diclofenac at 100 mg, po administered as single dose by capillary column gas chromatographic method. On the set-up: time < 96 hr, dose 100 mg, route oral. The conditions noted are these: in vivo.
The subject of series [18] is Homo sapiens. The experiment in a line: AUC (0 to infinity) in healthy volunteer (3 volunteers) assessed as 4'-hydroxy diclofenac at 100 mg, po administered as single dose by capillary column gas chromatographic method. On the set-up: dose 100 mg, route oral, time infinity. The settings on record: in vivo.
Series [19] relates to Homo sapiens. The experiment in a line: Cmax in healthy volunteer (3 volunteers) assessed as 4'-hydroxy diclofenac at 100 mg, po administered as single dose by capillary column gas chromatographic method. On the set-up: dose 100 mg, route oral. The settings on record: in vivo.
Series [20] concerns Homo sapiens. The experiment in a line: Tmax in healthy volunteer (3 volunteers) assessed as 4'-hydroxy diclofenac at 100 mg, po administered as single dose by capillary column gas chromatographic method. The settings on record: in vivo.
Series [21] in a line: Total drug excretion in healthy volunteer (3 volunteers) urine assessed as 4'-hydroxy diclofenac at 100 mg, po administered as single dose measured over 96 hrs by capillary column gas chromatographic method. The settings on record: human, in vivo.
Series [22] relates to Homo sapiens. Briefly: Apparent elimination half life in healthy volunteer (3 volunteers) assessed as 4'-hydroxy diclofenac at 100 mg, po administered as single dose by capillary column gas chromatographic method. The settings on record: in vivo.
Series [23] deals with Homo sapiens. Briefly: AUC (0 to 96 hrs) in healthy volunteer (3 volunteers) assessed as 3'-hydroxy diclofenac at 100 mg, po administered as single dose by capillary column gas chromatographic method. On the set-up: dose 100 mg, time < 96 hr, route oral. The settings on record: in vivo.
Series [24] concerns Homo sapiens. The experiment in a line: AUC (0 to 96 hrs) in healthy volunteer (3 volunteers) assessed as 5-hydroxy diclofenac at 100 mg, po administered as single dose by capillary column gas chromatographic method. On the set-up: dose 100 mg, time < 96 hr, route oral. The settings on record: in vivo.
Series [25] deals with Homo sapiens. Briefly: AUC (0 to infinity) in healthy volunteer (3 volunteers) assessed as 5-hydroxy diclofenac at 100 mg, po administered as single dose by capillary column gas chromatographic method. Also on record: dose 100 mg, route oral, time infinity. The settings on record: in vivo.
Series [26] deals with Homo sapiens. Briefly: Cmax in healthy volunteer (3 volunteers) assessed as 5-hydroxy diclofenac at 100 mg, po administered as single dose by capillary column gas chromatographic method. Also on record: dose 100 mg, route oral. The settings on record: in vivo.
In series [27] the test system is Homo sapiens. The experiment in a line: Tmax in healthy volunteer (3 volunteers) assessed as 5-hydroxy diclofenac at 100 mg, po administered as single dose by capillary column gas chromatographic method. The settings on record: in vivo.
Series [28] is described as follows: Total drug excretion in healthy volunteer (3 volunteers) urine assessed as 5-hydroxy diclofenac at 100 mg, po administered as single dose measured over 96 hrs by capillary column gas chromatographic method. The conditions noted are these: human, in vivo.
Series [29] relates to Homo sapiens. The experiment in a line: Apparent elimination half life in healthy volunteer (3 volunteers) assessed as 5-hydroxy diclofenac at 100 mg, po administered as single dose by capillary column gas chromatographic method. The settings on record: in vivo.
In series [30] the test system is Homo sapiens. The experiment in a line: AUC (0 to infinity) in healthy volunteer (3 volunteers) assessed as 3'-hydroxy diclofenac at 100 mg, po administered as single dose by capillary column gas chromatographic method. On the set-up: dose 100 mg, time infinity, route oral. The settings on record: in vivo.
The test system of series [31] is Homo sapiens. The experiment in a line: Cmax in healthy volunteer (3 volunteers) assessed as 3'-hydroxy diclofenac at 100 mg, po administered as single dose by capillary column gas chromatographic method. Also on record: dose 100 mg, route oral. The conditions noted are these: in vivo.
Series [32] relates to Homo sapiens. The experiment in a line: Tmax in healthy volunteer (3 volunteers) assessed as 3'-hydroxy diclofenac at 100 mg, po administered as single dose by capillary column gas chromatographic method. The settings on record: in vivo.
The nature of series [33]: Total drug excretion in healthy volunteer (3 volunteers) urine assessed as 3'-hydroxy diclofenac at 100 mg, po administered as single dose measured over 96 hrs by capillary column gas chromatographic method. The settings on record: human, in vivo.
The subject of series [34] is Homo sapiens. Briefly: Apparent elimination half life in healthy volunteer (3 volunteers) assessed as 3'-hydroxy diclofenac at 100 mg, po administered as single dose by capillary column gas chromatographic method. The conditions noted are these: in vivo.
Series [35] deals with Homo sapiens. The experiment in a line: AUC (0 to 96 hrs) in healthy volunteer (3 volunteers) assessed as 4',5-dihydroxy diclofenac at 100 mg, po administered as single dose by capillary column gas chromatographic method. Also on record: time < 96 hr, dose 100 mg, route oral. The conditions noted are these: in vivo.
The test system of series [36] is Homo sapiens. The experiment in a line: AUC (0 to infinity) in healthy volunteer (3 volunteers) assessed as 4',5-dihydroxy diclofenac at 100 mg, po administered as single dose by capillary column gas chromatographic method. The conditions noted are these: in vivo. Also on record: dose 100 mg, time infinity, route oral.
Series [37] deals with Homo sapiens. The experiment in a line: Cmax in healthy volunteer (3 volunteers) assessed as 4',5-dihydroxy diclofenac at 100 mg, po administered as single dose by capillary column gas chromatographic method. On the set-up: dose 100 mg, route oral. The conditions noted are these: in vivo.
The subject of series [38] is Plasma. The experiment in a line: Steady state trough plasma concentration in chronic polyarthritis patient (6 patients) at 75 mg, po bid administered for 6 to 10 months by capillary column gas chromatographic method. The conditions noted are these: human, in vivo.
Series [39] has as its system Plasma. Briefly: Steady state trough plasma concentration in chronic polyarthritis patient (6 patients) assessed as 4'-hydroxy diclofenac at 75 mg, po bid administered for 6 to 10 months by capillary column gas chromatographic method. The conditions noted are these: human, in vivo.
Series [40] deals with Plasma. The experiment in a line: Steady state trough plasma concentration in chronic polyarthritis patient (6 patients) assessed as 5-hydroxy diclofenac at 75 mg, po bid administered for 6 to 10 months by capillary column gas chromatographic method. The settings on record: human, in vivo.
Series [41] concerns Plasma. The experiment in a line: Steady state trough plasma concentration in chronic polyarthritis patient (6 patients) assessed as 3'-hydroxy diclofenac at 75 mg, po bid administered for 6 to 10 months by capillary column gas chromatographic method. The settings on record: human, in vivo.
Series [42] deals with Plasma. The experiment in a line: Steady state trough plasma concentration in chronic polyarthritis patient (6 patients) assessed as 4',5-dihydroxy diclofenac at 75 mg, po bid administered for 6 to 10 months by capillary column gas chromatographic method. The conditions noted are these: human, in vivo.
Series [43] relates to Plasma. The experiment in a line: Steady state trough plasma concentration in chronic polyarthritis patient (6 patients) assessed as 3'-hydroxy-4'-methoxy diclofenac at 75 mg, po bid administered for 6 to 10 months by capillary column gas chromatographic method. The conditions noted are these: human, in vivo.

In the case of `O=C([O-])Cc1ccccc1Nc1c(Cl)cccc1Cl.[Na+]` [DICLOFENAC SODIUM], the Tmax came out at 40.2 min in the series with Homo sapiens [1]; 720 min with Homo sapiens [7]; 19.8 min in series [14]; 19.8 min with Homo sapiens [20]; 19.8 min with Homo sapiens [27]; 19.8 min in the series with Homo sapiens [32]. The Drug excretion amounted to 5.86 %ID in series [2]; 1.3 %ID in series [8]; 4.45 %ID in series [15]; 9.92 %ID in [21]; 4.66 %ID in series [28]; 2.79 %ID in [33]. The “betat1/2(app)” value turned out to be 2.6 h in the series on Homo sapiens [3]; 78 h in the series on Homo sapiens [9]; 2 h in the series with Homo sapiens [22]; 1 h in the series with Homo sapiens [29]; 1.1 h in the series on Homo sapiens [34]. In addition, the AUC amounted to 35.22 nmol·h/g in the series with Homo sapiens [4]; 61.82 nmol·h/g in the series on Homo sapiens [5]; 46.09 nmol·h/g in the series on Homo sapiens [10]; 6.05 nmol·h/g in the series with Homo sapiens [11]; 6.05 nmol·h/g with Homo sapiens [12]; 2.43 nmol·h/g in the series with Homo sapiens [17]. Further, the AUC with Homo sapiens [18] is 2.43 nmol·h/g; in the series with Homo sapiens [23], 1.71 nmol·h/g; in the series with Homo sapiens [24], 0.58 nmol·h/g; in the series with Homo sapiens [25] it was 0.58 nmol·h/g; in the series on Homo sapiens [30], 1.71 nmol·h/g; in the series with Homo sapiens [35], 1.46 nmol·h/g. Moreover, the AUC in the series on Homo sapiens [36] is 1.46 nmol·h/g. Further, the Cmax with Homo sapiens [6] is 0.49 nmol/g; with Homo sapiens [13], 9.73 nmol/g; in the series with Homo sapiens [19], 1.19 nmol/g; in the series on Homo sapiens [26] it was 0.45 nmol/g; in the series with Homo sapiens [31] it was 0.36 nmol/g; in the series with Homo sapiens [37], 0.44 nmol/g. Also, the half-life in [16] was 60 min.
For `Cc1nnc(SCC2=C(C(=O)O)N3C(=O)[C@@H](NC(=O)Cn4cc(Cl)c(=O)c(Cl)c4)[C@H]3SC2)s1` [CEFAZEDONE], the Cminss with Plasma [38] is 0.565 nmol/g; with Plasma [39], 0.438 nmol/g; in the series with Plasma [40] it was 0.234 nmol/g; in the series with Plasma [41], 0.302 nmol/g; with Plasma [42] it was 0.252 nmol/g; in the series on Plasma [43], 3.687 nmol/g.

Broadly, the Tmax is the time at which the peak concentration occurs.
